In patent publication EP0386243A1, “PLATINUM (II) COMPLEXES” (SAGAMI CHEMICAL RESEARCH CENTER, priority 1987, dated 1989):
pIC50: −log10 of the molar value. Read-outs that look alike come from different tables or passages of the source.

Experiments:
[1] = Toxicity: S-GPT (serum transaminase) and BUN (blood urea nitrogen) levels; assay type: in vivo
[2] = tested on: Mouse lymphatic leukemia tumor cells, P-388; experiment: Growth suppressing effect on mouse lymphatic leukemia tumor cells P-388 (48 h culture, Coulter counter cell count); assay type: cell-based; settings: P-388 cells 5 x 10^4 cells/ml, 37°C, no more than 0.5% DMSO; for pIC50: read-out: IC50
Protocol: The number of suspended cells was counted with a Coulter counter and ICso values were determined from dose response curves that were constructed for the respective compounds on the basis of percent growth inhibition as compared to the absence of the compounds.

Molecule | S-GPT (serum transaminase) ([1]; indicator of hepatotoxicity) | BUN (blood urea nitrogen) ([1]; indicator of nephrotoxicity) | pIC50 [2] | IC50 [2] [µg/mL]
bis{β-methyl(p-isobutylphenylpyruvato)}(trans-Q-1,2-diaminocyclohexane)platinum (II) [Compound No. 14] | did not cause any appreciable increase | did not cause any appreciable increase | – | –
bis(β-methylphenylpyruvato)ethylenediamine platinum (II) [Compound No. 17] | – | – | < 5.00 | –
CC(C(=O)C(=O)[O-])c1ccc(C(=O)[O-])cc1.CC(C(=O)C(=O)[O-])c1ccc(C(=O)[O-])cc1.C[NH2+]C.C[NH2+]C.NC1CCCCC1N.[Pt+2] (stereo not drawn) [Compound No. 33, bis{β-methyl(p-carboxyphenylpyruvato)}(trans-d,ℓ-1,2-diaminocyclohexane)platinum (II) bis(dimethylammonium) salt] | – | – | 7.55 | 0.024
